Laboratory results from ChEMBL document CHEMBL1132725, “Evaluation of new L-thiocitrulline derivatives as inhibitors of nitric oxide synthase” (Bioorg Med Chem Lett, 2000).

Tests used:
[1] = target: T1, Nitric oxide synthase 3 (Bos taurus) (UniProt P29473); assay: Compound was tested for the percent inhibition of nitric oxide synthase (e) using [14C]L-citrulline as radioligand.; conditions: concentration not given here
T1 sequence (whole entry): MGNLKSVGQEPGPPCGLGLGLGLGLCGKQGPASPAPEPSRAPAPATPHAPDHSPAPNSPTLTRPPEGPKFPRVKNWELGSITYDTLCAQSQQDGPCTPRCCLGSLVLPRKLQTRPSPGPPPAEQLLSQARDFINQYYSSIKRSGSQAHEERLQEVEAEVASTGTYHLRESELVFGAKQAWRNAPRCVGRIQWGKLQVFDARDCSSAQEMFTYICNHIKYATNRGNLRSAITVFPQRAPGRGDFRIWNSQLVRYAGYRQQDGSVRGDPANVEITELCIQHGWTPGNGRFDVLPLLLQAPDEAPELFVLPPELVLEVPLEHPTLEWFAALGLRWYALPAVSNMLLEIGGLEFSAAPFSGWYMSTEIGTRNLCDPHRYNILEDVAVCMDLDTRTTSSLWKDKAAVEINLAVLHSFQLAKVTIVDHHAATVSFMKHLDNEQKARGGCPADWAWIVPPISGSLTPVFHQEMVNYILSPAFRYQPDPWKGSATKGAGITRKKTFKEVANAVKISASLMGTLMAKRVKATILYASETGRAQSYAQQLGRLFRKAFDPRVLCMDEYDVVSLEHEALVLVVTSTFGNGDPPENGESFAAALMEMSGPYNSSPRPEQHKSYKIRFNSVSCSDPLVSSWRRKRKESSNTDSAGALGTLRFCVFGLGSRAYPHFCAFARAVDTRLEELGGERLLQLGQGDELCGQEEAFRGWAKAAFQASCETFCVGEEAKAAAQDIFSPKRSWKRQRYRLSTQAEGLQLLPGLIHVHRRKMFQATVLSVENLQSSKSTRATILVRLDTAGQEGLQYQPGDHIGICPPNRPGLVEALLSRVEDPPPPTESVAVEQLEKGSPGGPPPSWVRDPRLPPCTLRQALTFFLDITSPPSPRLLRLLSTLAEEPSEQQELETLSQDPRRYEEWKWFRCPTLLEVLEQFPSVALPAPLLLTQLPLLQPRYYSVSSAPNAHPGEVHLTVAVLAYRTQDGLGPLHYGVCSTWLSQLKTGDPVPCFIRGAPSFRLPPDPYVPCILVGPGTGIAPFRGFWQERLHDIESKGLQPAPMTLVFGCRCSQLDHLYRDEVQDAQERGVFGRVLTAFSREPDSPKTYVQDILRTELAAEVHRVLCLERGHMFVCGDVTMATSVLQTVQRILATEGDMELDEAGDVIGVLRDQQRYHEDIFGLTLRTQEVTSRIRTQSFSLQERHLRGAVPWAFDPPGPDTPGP

[2] = target: T2, Nitric oxide synthase, inducible (Mus musculus) (UniProt P29477); assay: Compound was tested for the percent inhibition of nitric oxide synthase (i) using [14C]L-citrulline as radioligand.; conditions: concentration not given here
T2 sequence (whole entry): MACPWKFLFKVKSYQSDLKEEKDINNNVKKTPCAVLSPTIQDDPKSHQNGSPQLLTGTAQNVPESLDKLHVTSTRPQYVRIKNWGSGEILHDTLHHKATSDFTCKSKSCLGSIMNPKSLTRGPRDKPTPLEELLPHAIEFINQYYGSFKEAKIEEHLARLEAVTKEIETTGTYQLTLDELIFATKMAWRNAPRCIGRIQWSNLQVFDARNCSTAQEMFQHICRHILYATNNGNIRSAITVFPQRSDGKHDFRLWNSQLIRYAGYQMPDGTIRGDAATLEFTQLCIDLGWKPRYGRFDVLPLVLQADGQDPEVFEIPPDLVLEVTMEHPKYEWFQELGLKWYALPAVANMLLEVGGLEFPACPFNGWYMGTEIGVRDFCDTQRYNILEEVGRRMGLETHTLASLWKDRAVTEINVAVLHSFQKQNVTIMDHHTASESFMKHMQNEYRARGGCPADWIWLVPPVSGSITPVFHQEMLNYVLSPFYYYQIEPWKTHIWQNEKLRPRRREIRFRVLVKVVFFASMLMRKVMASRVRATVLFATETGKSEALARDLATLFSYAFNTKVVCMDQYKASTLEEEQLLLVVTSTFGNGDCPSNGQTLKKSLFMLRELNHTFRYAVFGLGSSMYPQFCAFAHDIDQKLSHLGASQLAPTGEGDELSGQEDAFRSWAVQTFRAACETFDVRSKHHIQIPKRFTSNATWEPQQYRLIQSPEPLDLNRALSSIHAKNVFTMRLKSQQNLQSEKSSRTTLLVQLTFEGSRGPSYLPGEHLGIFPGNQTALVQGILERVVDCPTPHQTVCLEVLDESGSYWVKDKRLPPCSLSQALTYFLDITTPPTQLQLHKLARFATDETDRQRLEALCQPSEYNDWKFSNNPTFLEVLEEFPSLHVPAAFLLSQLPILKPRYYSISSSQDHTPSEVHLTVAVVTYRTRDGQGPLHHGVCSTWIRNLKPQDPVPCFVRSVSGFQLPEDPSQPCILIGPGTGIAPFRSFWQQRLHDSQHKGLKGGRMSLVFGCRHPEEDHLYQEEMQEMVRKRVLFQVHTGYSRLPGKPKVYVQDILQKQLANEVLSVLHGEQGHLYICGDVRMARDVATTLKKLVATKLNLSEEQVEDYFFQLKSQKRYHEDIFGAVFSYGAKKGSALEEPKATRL

[3] = target: Nitric oxide synthase 1 (Rattus norvegicus) (UniProt P29476); assay: Compound was tested for the percent inhibition of nitric oxide synthase (n) using [14C]L-citrulline as radioligand.; conditions: concentration not given here
Sequence of Nitric oxide synthase 1 (Rattus norvegicus) (P29476 whole entry): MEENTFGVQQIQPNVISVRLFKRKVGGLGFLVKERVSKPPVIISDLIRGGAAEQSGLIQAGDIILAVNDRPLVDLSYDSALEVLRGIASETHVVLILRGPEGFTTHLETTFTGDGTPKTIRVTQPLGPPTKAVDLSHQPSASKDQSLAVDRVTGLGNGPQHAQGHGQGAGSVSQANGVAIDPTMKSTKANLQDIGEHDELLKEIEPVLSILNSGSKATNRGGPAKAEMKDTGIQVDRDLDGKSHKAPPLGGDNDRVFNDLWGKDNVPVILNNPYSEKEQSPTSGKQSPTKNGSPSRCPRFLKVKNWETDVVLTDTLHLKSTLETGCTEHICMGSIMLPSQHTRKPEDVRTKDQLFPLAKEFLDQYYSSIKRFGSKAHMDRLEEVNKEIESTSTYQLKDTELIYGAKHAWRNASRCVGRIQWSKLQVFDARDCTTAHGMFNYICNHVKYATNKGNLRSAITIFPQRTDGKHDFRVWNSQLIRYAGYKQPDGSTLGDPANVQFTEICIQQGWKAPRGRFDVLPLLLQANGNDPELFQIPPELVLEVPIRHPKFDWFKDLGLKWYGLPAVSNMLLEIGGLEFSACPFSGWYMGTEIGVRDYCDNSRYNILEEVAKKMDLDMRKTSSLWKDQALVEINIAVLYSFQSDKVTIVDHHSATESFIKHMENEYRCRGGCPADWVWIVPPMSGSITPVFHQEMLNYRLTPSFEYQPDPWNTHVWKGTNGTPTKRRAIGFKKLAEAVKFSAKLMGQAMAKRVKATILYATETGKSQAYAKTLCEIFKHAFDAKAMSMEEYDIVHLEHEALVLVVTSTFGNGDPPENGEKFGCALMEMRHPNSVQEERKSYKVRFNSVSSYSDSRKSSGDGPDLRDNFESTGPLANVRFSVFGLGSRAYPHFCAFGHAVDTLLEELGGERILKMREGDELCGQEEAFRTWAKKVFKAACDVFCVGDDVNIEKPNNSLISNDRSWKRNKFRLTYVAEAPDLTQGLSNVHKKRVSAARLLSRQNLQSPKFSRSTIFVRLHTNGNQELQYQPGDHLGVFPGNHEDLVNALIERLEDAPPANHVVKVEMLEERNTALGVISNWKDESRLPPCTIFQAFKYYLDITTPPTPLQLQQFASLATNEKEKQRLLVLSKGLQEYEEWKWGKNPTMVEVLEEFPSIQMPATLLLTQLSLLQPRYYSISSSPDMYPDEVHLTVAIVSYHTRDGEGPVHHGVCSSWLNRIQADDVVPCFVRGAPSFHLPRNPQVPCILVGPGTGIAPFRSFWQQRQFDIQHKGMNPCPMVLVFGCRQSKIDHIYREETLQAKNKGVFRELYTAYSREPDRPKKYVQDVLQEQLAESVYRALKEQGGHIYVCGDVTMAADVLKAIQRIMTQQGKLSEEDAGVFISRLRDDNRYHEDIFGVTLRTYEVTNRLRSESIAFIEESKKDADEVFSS

[4] = target: T3, Nitric oxide synthase, inducible (Mus musculus, UniProt P29477); assay: Compound was tested for the competitive inhibition of nitric oxide synthase (i) using [14C]L-citrulline as radioligand. value ranges from 3.6-9 uM
T3 sequence (P29477 whole entry): T2 sequence (whole entry)

Nitric oxide synthase 1 = Nitric oxide synthase 1 (Rattus norvegicus, UniProt P29476); assay: Compound was tested for the competitive inhibition of nitric oxide synthase (n) using [14C]L-citrulline as radioligand.; value ranges from 0.06-2 uM
Sequence of Nitric oxide synthase 1 (P29476 whole entry): as above

Row | inhibition [1] [%] | inhibition [2] [%] | inhibition [3] [%] | Ki [4] [nM] | Ki (Nitric oxide synthase 1) [nM] | Compound
1 | 46 | 56 | 39 | – | – | CSC(=NCCC[C@H](N)C(=O)O)SC
2 | 25 | 54 | 27 | – | – | CS/C(S)=N/CCC[C@H](N)C(=O)O
3 | > 99 | > 99 | > 99 | 3600 | 60 | N/C(S)=N/CCC[C@H](N)C(=O)O

Row | Compound | inhibition [1] [%] | inhibition [2] [%] | inhibition [3] [%] | Ki [4] [nM] | Ki (Nitric oxide synthase 1) [nM]
4 | CCOP(=S)(NCCC[C@H](N)C(=O)O)OCC | – | < 10 | – | – | –
